# Data from US10821069B2, “Aqueous extract of truffle and cosmetic composition thereof” (ISP INVESTMENTS LLC, priority 2014, dated 2020).
# System: Normal human keratinocytes
# Assay: Mitochondrial ROS production after rotenone-induced production of ROS (MITOSOX staining)
# Format: cell-based
# Conditions: 1 μM Rotenone for 4 hours, no extract
# Protocol: The purpose of this study is to determine the influence of the Truffle extract according to example 2 regarding the mitochondrial Reactive oxygen Species (ROS) production. Mitochondrial ROS were induced by rotenone, an electron transport chain complex inhibitor.
# Method: Normal human keratinocytes extracted from a […] […] abdominal skin were seeded in 8 well culture PERMANOX® plastic slides (Thermo Scientific, Waltham, Mass., USA). Cells were pre-treated with two applications per day of the Truffle extract of example 2 (at 0.01% and 0.05%) for 48 h in KSFM medium (Gibco, Auckland, NZ) supplemented with 50 μg·ml-1 bovine pituitary extract (Gibco), 5 ng·ml-1 human recombinant EGF (Gibco) and 0.1 mg·ml-1 PRIMOCIN™ (Invivogen, San Diego, Calif., USA). Then cells were submitted to 1 μM Rotenone application for 4 hours. Immediately after the stress, culture medium was replaced with fresh KSFM for 1 hour. At the end of incubation, a 5 μM MITOSOX® (Life Technologies, Carlsbad, Calif., USA) solution was incubated further for 20 min at 37° C. in 5% CO2 atmosphere. […] Digital images were acquired with an inverted Zeiss Axiovert 200M microscope (Zeiss, Oberkochen, Germany) with a 20× objective. […] Statistical significance of the data was assessed by paired Student's t-test (n=3, p<0.05 was considered significant; p<0.01 as very significant and p<0.005 as highly significant).
smiles,measurement,value
C=C(C)[C@H]1Cc2c(ccc3c2O[C@@H]2COc4cc(OC)c(OC)cc4[C@@H]2C3=O)O1 [rotenone],increase in ROS production in keratinocytes compared to untreated control,45%
